Assay results reported in patent publication US10815274B2, “Immunogenic WT-1 peptides and methods of use thereof” (Memorial Sloan Kettering Cancer Center, priority 2012, dated 2020).
Where a SMILES comes first, the peptide text is derived from it.

Assays:
[1] = test system: WT1- allo APC with restricting HLA allele; assay: Cr51 release assay, cytotoxic CTL response vs unloaded allogeneic APC sharing restricting HLA allele; type: cell-based, human; conditions: 50:1 E:T
WT1- autologous APC = assay: Cr51 release assay, cytotoxic CTL response vs unmodified autologous APC; type: cell-based, human; conditions: 50:1 E:T
[2] = test system: WT1+ allo APC with restricting HLA allele loaded with WT1 peptide; assay: Cr51 release assay, cytotoxic CTL response vs peptide loaded allogeneic APC sharing restricting HLA allele (HLA restriction); conditions: 50:1 E:T
[3] = test system: WT1 peptide loaded autologous APC; assay: Cr51 release assay, cytotoxic CTL response vs peptide loaded autologous APC; type: cell-based, human; conditions: 50:1 E:T
WT1- leukemia = assay: Cr51 release assay, cytotoxic CTL response vs WT1- leukemia; type: cell-based, human; conditions: HLA allele A0201; 50:1 E:T
Text: (§1) Twenty-four primary leukemic cells and 1 leukemic cell line were characterized for their expression of WT1 by intracellular FACS staining using murine anti-human WT1 monoclonal antibodies (Neomarkers, Fremont, Calif.) as previously described (32,38) The WT1+ leukemias included blast cells from 11 primary AMLs, 3 primary ALLs and 1B-cell precursor ALL cell line. Ten WT1-leukemias, were used as controls, and included 3 B-cell precursor ALLs and 7 AMLs.

WT1+ leukemia = assay: Cr51 release assay, cytotoxic CTL response vs WT1+ leukemia expressing restricting HLA allele; type: cell-based, human; conditions: HLA allele A0201; 50:1 E:T
Text: as §1
PHA blasts were not available from every patient that provided leukemia blasts for this study.

CC(C)C[C@H](NC(=O)[C@H](CO)NC(=O)[C@@H]1CCCN1C(=O)[C@@H]1CCCN1C(=O)[C@H](Cc1ccccc1)NC(=O)[C@@H](N)Cc1c[nH]cn1)C(=O)N1CCC[C@H]1C(=O)N1CCC[C@H]1C(=O)N[C@H](C(=O)O)[C@@H](C)O [SEQ ID NO: 145] (H-HFPPSLPPT-OH; N-terminus and C-terminus assumed)
Cytotoxic CTL response, % vs WT1- allo APC with restricting HLA allele ([1]; HLA allele A3101): 0%
Cytotoxic CTL response, % vs WT1- autologous APC (WT1- autologous APC; HLA allele A3101): 0%
Cytotoxic CTL response, % vs WT1+ allo APC with restricting HLA allele loaded with WT1 peptide ([2]; HLA allele A3101): 27%
Cytotoxic CTL response, % vs WT1 peptide loaded autologous APC ([3]; HLA allele A3101): 42%

CC[C@H](C)[C@H](NC(=O)[C@H](C)N)C(=O)N[C@@H](CC(C)C)C(=O)N[C@@H](CC(=O)O)C(=O)N[C@@H](Cc1ccccc1)C(=O)N[C@@H](CC(C)C)C(=O)N[C@@H](CC(C)C)C(=O)N[C@@H](CC(C)C)C(=O)N[C@@H](CCC(N)=O)C(=O)O [SEQ ID NO: 147] (H-AILDFLLLQ-OH; N-terminus and C-terminus assumed)
Cytotoxic CTL response, % vs WT1- allo APC with restricting HLA allele ([1]; HLA allele A0201): 3%
Cytotoxic CTL response, % vs WT1- leukemia (WT1- leukemia): 3%
Cytotoxic CTL response, % vs WT1- autologous APC (WT1- autologous APC; HLA allele A0201): 0%
Cytotoxic CTL response, % vs WT1+ allo APC with restricting HLA allele loaded with WT1 peptide ([2]; HLA allele A0201): 17%
Cytotoxic CTL response, % vs WT1 peptide loaded autologous APC ([3]; HLA allele A0201): 18%
Cytotoxic CTL response, % vs WT1+ leukemia (WT1+ leukemia): 19%

CC(C)C[C@H](NC(=O)[C@H](CS)NC(=O)CNC(=O)[C@@H]1CCCN1)C(=O)N[C@@H](CCC(N)=O)C(=O)N[C@@H](CCC(N)=O)C(=O)N1CCC[C@H]1C(=O)N[C@@H](CCC(=O)O)C(=O)N[C@@H](CCC(N)=O)C(=O)O [SEQ ID NO: 148] (H-PGCLQQPEQ-OH; N-terminus and C-terminus assumed)
Cytotoxic CTL response, % vs WT1- allo APC with restricting HLA allele ([1]; HLA allele A0201): 7%
Cytotoxic CTL response, % vs WT1- allo APC with restricting HLA allele ([1]; HLA allele B4701): 1%
Cytotoxic CTL response, % vs WT1- leukemia (WT1- leukemia): 5%
Cytotoxic CTL response, % vs WT1- autologous APC (WT1- autologous APC; HLA allele A0201): 6%
Cytotoxic CTL response, % vs WT1- autologous APC (WT1- autologous APC; HLA allele B4701): 6%
Cytotoxic CTL response, % vs WT1+ allo APC with restricting HLA allele loaded with WT1 peptide ([2]; HLA allele A0201): 27%
Cytotoxic CTL response, % vs WT1+ allo APC with restricting HLA allele loaded with WT1 peptide ([2]; HLA allele B4701): 25%
Cytotoxic CTL response, % vs WT1 peptide loaded autologous APC ([3]; HLA allele A0201): 54%
Cytotoxic CTL response, % vs WT1 peptide loaded autologous APC ([3]; HLA allele B4701): 54%
Cytotoxic CTL response, % vs WT1+ leukemia (WT1+ leukemia): 19%

CC(C)C[C@H](NC(=O)[C@H](CS)NC(=O)CNC(=O)[C@@H]1CCCN1)C(=O)N[C@@H](CCC(N)=O)C(=O)N[C@@H](CCC(N)=O)C(=O)N1CCC[C@H]1C(=O)N[C@@H](CCC(=O)O)C(=O)N[C@@H](CCC(N)=O)C(=O)N[C@@H](CCC(N)=O)C(=O)NCC(=O)O [SEQ ID NO: 149] (H-PGCLQQPEQQG-OH; N-terminus and C-terminus assumed)
Cytotoxic CTL response, % vs WT1- allo APC with restricting HLA allele ([1]; HLA allele DRB10101): 1%
Cytotoxic CTL response, % vs WT1- autologous APC (WT1- autologous APC; HLA allele DRB10101): 6%
Cytotoxic CTL response, % vs WT1+ allo APC with restricting HLA allele loaded with WT1 peptide ([2]; HLA allele DRB10101): 25%
Cytotoxic CTL response, % vs WT1 peptide loaded autologous APC ([3]; HLA allele DRB10101): 54%

CC(C)C[C@H](NC(=O)[C@@H](NC(=O)[C@@H]1CCCN1C(=O)[C@H](C)NC(=O)[C@H](Cc1c[nH]c2ccccc12)NC(=O)[C@H](CCC(N)=O)NC(=O)[C@H](C)NC(=O)[C@H](C)NC(=O)CN)C(C)C)C(=O)O [SEQ ID NO: 154] (H-GAAQWAPVL-OH; N-terminus and C-terminus assumed)
Cytotoxic CTL response, % vs WT1- allo APC with restricting HLA allele ([1]; HLA allele B3901): 0%
Cytotoxic CTL response, % vs WT1- autologous APC (WT1- autologous APC; HLA allele B3901): 2%
Cytotoxic CTL response, % vs WT1+ allo APC with restricting HLA allele loaded with WT1 peptide ([2]; HLA allele B3901): 19%
Cytotoxic CTL response, % vs WT1 peptide loaded autologous APC ([3]; HLA allele B3901): 31%

C[C@H](N)C(=O)N[C@@H](CS)C(=O)N[C@@H](CCCNC(=N)N)C(=O)N[C@@H](Cc1ccc(O)cc1)C(=O)NCC(=O)N1CCC[C@H]1C(=O)N[C@@H](Cc1ccccc1)C(=O)NCC(=O)N1CCC[C@H]1C(=O)O [SEQ ID NO: 159] (H-ACRYGPFGP-OH; N-terminus and C-terminus assumed)
Cytotoxic CTL response, % vs WT1- allo APC with restricting HLA allele ([1]; HLA allele B4402): 7%
Cytotoxic CTL response, % vs WT1- autologous APC (WT1- autologous APC; HLA allele B4402): 8%
Cytotoxic CTL response, % vs WT1+ allo APC with restricting HLA allele loaded with WT1 peptide ([2]; HLA allele B4402): 23%
Cytotoxic CTL response, % vs WT1 peptide loaded autologous APC ([3]; HLA allele B4402): 46%

CSCC[C@H](NC(=O)[C@H](CCCNC(=N)N)NC(=O)[C@H](C)NC(=O)[C@H](CCC(N)=O)NC(=O)CNC(=O)[C@@H](N)CO)C(=O)N[C@@H](Cc1ccccc1)C(=O)N1CCC[C@H]1C(=O)N[C@@H](CC(N)=O)C(=O)O [SEQ ID NO: 160] (H-SGQARMFPN-OH; N-terminus and C-terminus assumed)
Cytotoxic CTL response, % vs WT1- allo APC with restricting HLA allele ([1]; HLA allele B3503): 3%
Cytotoxic CTL response, % vs WT1- allo APC with restricting HLA allele ([1]; HLA allele C0401): 3%
Cytotoxic CTL response, % vs WT1- autologous APC (WT1- autologous APC; HLA allele B3503): 0%
Cytotoxic CTL response, % vs WT1- autologous APC (WT1- autologous APC; HLA allele C0401): 0%
Cytotoxic CTL response, % vs WT1+ allo APC with restricting HLA allele loaded with WT1 peptide ([2]; HLA allele B3503): 41%
Cytotoxic CTL response, % vs WT1+ allo APC with restricting HLA allele loaded with WT1 peptide ([2]; HLA allele C0401): 41%
Cytotoxic CTL response, % vs WT1 peptide loaded autologous APC ([3]; HLA allele B3503): 84%
Cytotoxic CTL response, % vs WT1 peptide loaded autologous APC ([3]; HLA allele C0401): 84%
